Tests used:
[1] = Inhibition of M-phase starfish oocytes CDK1/cyclin B using histone H1 as substrate after 30 mins in presence of ATP by scintillation counting method; design: species or system Asteroidea
[2] = molecular target: CDK2/Cyclin A2 (Homo sapiens, UniProt P24941); experiment: Inhibition of recombinant human CDK2/cyclin A using histone H1 as substrate after 30 mins in presence of ATP by scintillation counting method; type: protein-complex assay
[3] = Inhibition of porcine brain CK1-delta/epsilon using CSK peptide as substrate after 30 mins in presence of ATP by scintillation counting method; design: species or system Sus scrofa
[4] = molecular target: Dual specificity protein kinase CLK1 (Mus musculus, UniProt P22518); experiment: Inhibition of recombinant mouse GST-fused CLK1 expressed in Escherichia coli using RS peptide as substrate after 30 mins in presence of ATP by scintillation counting method
[5] = molecular target: Glycogen synthase kinase-3 (Sus scrofa, UniProt B2LUN4+I6LNT8); experiment: Inhibition of porcine brain GSK-3 alpha/beta using YRRAAVPPSPSLSRHSSPHQpSEDEEE as substrate after 30 mins in presence of ATP by scintillation counting method
[6] = test system: MDA-MB-231; experiment: Cytotoxicity against human MDA-MB-231 cells by MTT assay; type: functional, cell-based
[7] = test system: MDA-MB-468; experiment: Cytotoxicity against human MDA-MB-468 cells by MTT assay; type: functional, cell-based
[8] = test system: MDA-MB-231; experiment: Growth inhibition of human MDA-MB-231 cells at 100 uM by MTT assay relative to control; type: functional; conditions: read-out: GI
[9] = test system: BT-20; experiment: Cytotoxicity against human BT20 cells by MTT assay; type: functional, cell-based
[10] = test system: MCF7; experiment: Cytotoxicity against human MCF7 cells by MTT assay; type: functional, cell-based
[11] = test system: ZR-75-1; experiment: Cytotoxicity against human ZR-75-1 cells by MTT assay; type: functional, cell-based
[12] = test system: ZR-75-30; experiment: Cytotoxicity against human ZR-7530 cells by MTT assay; type: functional, cell-based
[13] = test system: MIA PaCa-2; experiment: Cytotoxicity against human MIAPaCa2 cells by MTT assay; type: functional, cell-based
[14] = test system: PANC-1; experiment: Cytotoxicity against human PANC1 cells by MTT assay; type: functional, cell-based
[15] = test system: A549; experiment: Cytotoxicity against human A549 cells by MTT assay; type: functional, cell-based
[16] = test system: HCT-15; experiment: Cytotoxicity against human HCT15 cells by MTT assay; type: functional, cell-based
[17] = test system: HEK293; experiment: Cytotoxicity against HEK293 cells by MTT assay; type: cell-based; conditions: Homo sapiens
[18] = molecular target: Dual specificity tyrosine-phosphorylation-regulated kinase 1A (Homo sapiens) (UniProt Q13627); experiment: Inhibition of recombinant full length human GST-fused DYRK1A expressed in Escherichia coli at 10 uM using RS peptide as substrate after 30 mins in presence of ATP by scintillation counting method relative to control
[19] = molecular target: Dual specificity protein kinase CLK1 (Mus musculus) (UniProt P22518); experiment: Inhibition of recombinant mouse GST-fused CLK1 expressed in Escherichia coli at 10 uM using RS peptide as substrate after 30 mins in presence of ATP by scintillation counting method relative to control
[20] = species: Sus scrofa; experiment: Inhibition of porcine brain CK1-delta/epsilon at 10 uM using CSK peptide as substrate after 30 mins in presence of ATP by scintillation counting method relative to control
[21] = molecular target: CDK9/cyclin T1 (Homo sapiens) (UniProt O60563+P50750); experiment: Inhibition of recombinant human CDK9/cyclin T expressed in insect cells at 10 uM using YSPTSPSYSPTSPSYSPTSPSKKKK as substrate after 30 mins in presence of ATP by scintillation counting method relative to control
[22] = molecular target: Cyclin-dependent kinase 5/CDK5 activator 1 (Homo sapiens) (UniProt Q00535+Q15078); experiment: Inhibition of recombinant human CDK5/p25 expressed in Escherichia coli at 10 uM using histone H1 as substrate after 30 mins in presence of ATP by scintillation counting method relative to control
[23] = molecular target: CDK2/Cyclin A2 (Homo sapiens) (UniProt P24941+P20248); experiment: Inhibition of recombinant human CDK2/cyclin A at 10 uM using histone H1 as substrate after 30 mins in presence of ATP by scintillation counting method relative to control; type: protein-complex assay
[24] = test system: Asteroidea; experiment: Inhibition of M-phase starfish oocytes CDK1/cyclin B at 10 uM using histone H1 as substrate after 30 mins in presence of ATP by scintillation counting method relative to control
[25] = molecular target: Glycogen synthase kinase-3 (Sus scrofa) (UniProt B2LUN4+I6LNT8); experiment: Inhibition of porcine brain GSK-3 alpha/beta at 10 uM using YRRAAVPPSPSLSRHSSPHQpSEDEEE as substrate after 30 mins in presence of ATP by scintillation counting method relative to control
[26] = test system: MDA-MB-468; experiment: Growth inhibition of human MDA-MB-468 cells at 100 uM by MTT assay relative to control; type: functional; conditions: read-out: GI
[27] = test system: BT-20; experiment: Growth inhibition of human BT20 cells at 100 uM by MTT assay relative to control; type: functional; conditions: read-out: GI
[28] = test system: MCF7; experiment: Growth inhibition of human MCF7 cells at 100 uM by MTT assay relative to control; type: functional; conditions: read-out: GI
[29] = test system: ZR-75-1; experiment: Growth inhibition of human ZR-75-1 cells at 100 uM by MTT assay relative to control; type: functional; conditions: read-out: GI
[30] = test system: ZR-75-30; experiment: Growth inhibition of human ZR-7530 cells at 100 uM by MTT assay relative to control; type: functional; conditions: read-out: GI
[31] = test system: MIA PaCa-2; experiment: Growth inhibition of human MIAPaCa2 cells at 100 uM by MTT assay relative to control; type: functional; conditions: read-out: GI
[32] = test system: PANC-1; experiment: Growth inhibition of human PANC1 cells at 100 uM by MTT assay relative to control; type: functional; conditions: read-out: GI
[33] = test system: A549; experiment: Growth inhibition of human A549 cells at 100 uM by MTT assay relative to control; type: functional; conditions: read-out: GI
[34] = test system: HCT-15; experiment: Growth inhibition of human HCT15 cells at 100 uM by MTT assay relative to control; type: functional; conditions: read-out: GI
[35] = test system: DU-145; experiment: Growth inhibition of human DU145 cells at 100 uM by MTT assay relative to control; type: functional; conditions: read-out: GI
[36] = Growth inhibition of HEK293 cells at 100 uM by MTT assay relative to control; type: cell-based; conditions: human, read-out: GI

Chain of Cyclin-dependent kinase 5/CDK5 activator 1 (Homo sapiens) (Q00535 whole entry): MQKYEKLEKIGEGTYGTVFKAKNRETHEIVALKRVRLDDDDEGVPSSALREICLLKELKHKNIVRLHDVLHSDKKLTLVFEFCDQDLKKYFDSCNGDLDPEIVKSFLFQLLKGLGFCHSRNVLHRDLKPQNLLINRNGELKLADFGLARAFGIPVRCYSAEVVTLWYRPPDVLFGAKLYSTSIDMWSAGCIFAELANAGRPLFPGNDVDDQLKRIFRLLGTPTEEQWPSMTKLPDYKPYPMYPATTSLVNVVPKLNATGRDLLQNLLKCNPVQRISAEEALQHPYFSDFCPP
Chain of Cyclin-dependent kinase 5/CDK5 activator 1 (Homo sapiens) (Q15078 99-307 partner limits assumed): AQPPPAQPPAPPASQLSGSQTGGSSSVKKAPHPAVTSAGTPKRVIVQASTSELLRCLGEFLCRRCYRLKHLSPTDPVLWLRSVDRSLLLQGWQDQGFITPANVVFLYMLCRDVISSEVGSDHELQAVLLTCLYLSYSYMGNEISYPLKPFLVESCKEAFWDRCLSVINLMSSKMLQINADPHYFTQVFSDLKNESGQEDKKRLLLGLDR
Chain of Dual specificity protein kinase CLK1 (P22518 whole entry, the tested form may be a part): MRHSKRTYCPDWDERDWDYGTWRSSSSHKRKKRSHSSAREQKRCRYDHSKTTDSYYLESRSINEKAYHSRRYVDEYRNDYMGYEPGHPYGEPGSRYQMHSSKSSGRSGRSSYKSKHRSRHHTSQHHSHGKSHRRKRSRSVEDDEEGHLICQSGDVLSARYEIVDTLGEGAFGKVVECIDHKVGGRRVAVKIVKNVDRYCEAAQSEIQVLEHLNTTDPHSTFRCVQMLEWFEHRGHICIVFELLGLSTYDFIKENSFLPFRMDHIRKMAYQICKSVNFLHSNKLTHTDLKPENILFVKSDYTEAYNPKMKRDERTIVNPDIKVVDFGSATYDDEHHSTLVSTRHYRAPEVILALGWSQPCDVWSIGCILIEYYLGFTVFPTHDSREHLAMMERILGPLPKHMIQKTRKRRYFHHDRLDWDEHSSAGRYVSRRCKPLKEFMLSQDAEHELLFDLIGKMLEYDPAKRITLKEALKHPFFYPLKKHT
Chain of Dual specificity protein kinase CLK1 (Mus musculus) (P22518 whole entry, looked up, the tested form may be a part): as the sequence (P22518 whole entry, the tested form may be a part) above

COc1cc2ncnc(Nc3cc(-c4ccccc4)n(-c4ccccc4)n3)c2cc1OC
IC50 [1]: > 10 µM | IC50 [2]: > 10 µM | IC50 [3]: < 10 µM | IC50 [4]: > 10 µM | IC50 [5]: > 10 µM | IC50 [6]: 72.9 µM | IC50 [7]: > 100 µM | inhibition of growth at 100 µM [8]: > 50% | IC50 [9]: > 100 µM | IC50 [10]: > 100 µM | IC50 [11]: > 100 µM | IC50 [12]: 58.8 µM | IC50 [13]: 72.9 µM | IC50 [14]: 70.7 µM | IC50 [15]: < 100 µM | IC50 [16]: < 100 µM | IC50 [17]: > 100 µM | inhibition [18]: > 50% | inhibition [19]: > 50% | inhibition [20]: > 50% | inhibition [21]: > 50% | inhibition [22]: > 50% | inhibition [23]: > 50% | inhibition [24]: > 50% | inhibition [25]: > 50% | inhibition of growth at 100 µM [26]: > 50% | inhibition of growth at 100 µM [27]: > 50% | inhibition of growth at 100 µM [28]: > 50% | inhibition of growth at 100 µM [29]: > 50% | inhibition of growth at 100 µM [30]: > 50% | inhibition of growth at 100 µM [31]: > 50% | inhibition of growth at 100 µM [32]: > 50% | inhibition of growth at 100 µM [33]: > 50% | inhibition of growth at 100 µM [34]: > 50% | inhibition of growth at 100 µM [35]: > 50% | inhibition at 100 µM [36]: > 50%

From ChEMBL document CHEMBL4020763, “N-(1H-Pyrazol-3-yl)quinazolin-4-amines as a novel class of casein kinase 1δ/ε inhibitors: Synthesis, biological evaluation and molecular modeling studies” (Bioorg Med Chem Lett, 2017)
